Each structure is given as a SMILES string.

Turning to `Cc1noc(C)c1COc1ccc(C(=O)O)c(O)c1` [Compound 1-1, 2-Hydroxy-4-(3,5-dimethyl-isoxazol-4-yl-methyloxy)-benzoic acid], the melting point was in the range of 201 to 203 °C.
Turning to `O=C(O)c1ccc(OCc2ccc(-n3cncn3)cc2)cc1O` [Compound 1-2, 2-Hydroxy-4-(4-[1,2,4]triazol-1-yl-benzyloxy)-benzoic acid], the melting point was 229 °C (dec.).
As for `CCCCCCCCOc1ccc(C(=O)O)c(O)c1` [Compound 1-3, 2-Hydroxy-4-octyloxy-benzoic acid], the melting point was 100 to 102 °C.
The same measure for `COCCOCCOc1ccc(C(=O)O)c(O)c1` [Compound 1-4, 2-Hydroxy-4-[2-(2-methoxy-ethoxy]-ethoxy]-benzoic acid]: 110 to 112 °C; for `C=CCCOc1ccc(C(=O)O)c(O)c1` [Compound 1-5, 4-But-3-enyloxy-2-hydroxy-benzoic acid]: 143 to 144 °C; for `C=CCCCCOc1ccc(C(=O)O)c(O)c1` [Compound 1-7, 4-Hex-5-enyloxy-2-hydroxy-benzoic acid]: 105 °C.
The same measure for `O=C(O)c1ccc(OCCCCCCO)cc1O` [Compound 1-8, 2-Hydroxy-4-(6-hydroxyhexyloxy) benzoic acid]: 139 °C.
As for `O=C(O)c1ccc(OCCCCCCCCO)cc1O` [Compound 1-9, 2-Hydroxy-4-(8-hydroxy-octyloxy) benzoic acid], the melting point lay in the range of 119 to 121 °C.
Consider `C=CCCCCCCOc1ccc(C(=O)O)c(O)c1` [Compound 1-10, 2-Hydroxy-4-oct-7-enyloxy-benzoic acid], for which the melting point fell in the range of 102 to 111 °C.
The same measure for `CC(C)=CCC/C(C)=C/COc1ccc(C(=O)O)c(O)c1` [Compound 1-13, 4-(3,7-Dimethyl-octa-2,6-dienyloxy)-2-hydroxybenzoic acid]: 97 to 106 °C.
The same measure for `O=C(O)c1ccc(OCc2ccc(-c3ccccc3)cc2)cc1O` [Compound 1-16, 4-(Biphenyl-4-ylmethoxy)-2-hydroxy-benzoic acid]: 216 to 219 °C (dec.).
Turning to `N#Cc1ccccc1-c1ccc(COc2ccc(C(=O)O)c(O)c2)cc1` [Compound 1-17, 4-(2′-Cyano-biphenyl-4-ylmethoxy)-2-hydroxy-benzoic acid], the melting point was 220 °C (dec.).
For the compound `O=C(O)c1ccc(OCc2ccc(F)cc2)cc1O` [Compound 1-18, 4-(4-Fluoro-benzyloxy)-2-hydroxy-benzoic acid], the melting point lay in the range of 196 to 198 °C.
The same measure for `O=C(O)c1ccc(OCc2ccc3ccccc3n2)cc1O` [Compound 1-19, 2-Hydroxy-4-(quinolin-2-ylmethoxy)-benzoic acid]: 197 °C (dec.); for `O=C(c1ccccc1)c1ccc(COc2ccc(C(=O)O)c(O)c2)cc1` [Compound 1-20, 4-(4-Benzoyl-benzyloxy)-2-hydroxy benzoic acid]: 198 to 199 °C.
The same measure for `O=C(O)c1ccc(OCCCN2CCCCC2)cc1O` [Compound 1-21, 2-Hydroxy-4-(3-piperidin-1-yl-propoxy)-benzoic acid]: 194 °C (dec.).
With `O=C(O)c1ccc(OCc2cccc(Br)c2)cc1O` [Compound 1-23, 4-(3-Bromo-benzyloxy)-2-hydroxy-benzoic acid], the melting point was in the range of 191 to 197 °C.
In turn, `O=C(O)c1ccc(OCC(O)CO)cc1O` (centres unmarked) [Compound 2-1, 4-(2,3-Dihydroxypropoxy)-2-hydroxy-benzoic acid] displayed a melting point of 151 to 153 °C.
The same measure for `O=C(O)c1ccc(OCCC(O)CO)cc1O` (centres unmarked) [Compound 2-2, 4-(3,4-Dihydroxybutoxy)-2-hydroxy-benzoic acid]: 140 to 148 °C; for `O=C(O)c1ccc(OCCCCC(O)CO)cc1O` (centres unmarked) [Compound 2-3, 4-(5,6-Dihydroxhexoxy)-2-hydroxy-benzoic acid]: 152 °C.
The same measure for `O=C(O)c1ccc(OCCCCCCC(O)CO)cc1O` (centres unmarked) [Compound 2-6, 4-(7,8-Dihydroxyoctyloxy)-2-hydroxy-benzoic acid]: 168 to 170 °C; for `NNC(=O)c1ccc(OCc2cccc(Br)c2)cc1O` [Compound 2-7, 4-(3-Bromo-benzyloxy)-2-hydroxy-benzoic acid hydrazide]: 201 to 203 °C.
The same measure for `O=C(O)c1ccc(OCc2ccc(-c3cccnc3)cc2)cc1O` [Compound 3-1, 2-Hydroxy-4-(4-pyridin-3-yl-benzyloxy)-benzoic acid]: 209 to 211 °C (dec.).
In the case of `O=C(O)c1ccc(OCc2ccc(-c3ccncc3)cc2)cc1O` [Compound 3-2, 2-Hydroxy-4-(4-pyridin-4-yl-benzyloxy)-benzoic acid], the melting point is 252 to 257 °C (dec.).
The same measure for `O=C(O)c1ccc(OCc2ccc(-c3ccco3)cc2)cc1O` [Compound 3-3, 4-(4-Furan-2-yl-benzyloxy)-2-hydroxy-benzoic acid]: 201 to 205 °C (dec.); for `O=C(O)c1ccc(OCc2ccc(-c3ccoc3)cc2)cc1O` [Compound 3-4, 4-(4-Furan-3-yl-benzyloxy)-2-hydroxy-benzoic acid]: 202 to 206 °C (dec.); for `COc1ccncc1-c1ccc(COc2ccc(C(=O)O)c(O)c2)cc1` [Compound 3-5, 2-Hydroxy-4-[4-(4-methoxy-pyridin-3-yl)-benzyloxy]-benzoic acid]: 197 to 200 °C (dec.).
Regarding `CC(=O)c1cccc(-c2ccc(COc3ccc(C(=O)O)c(O)c3)cc2)c1` [Compound 3-6, 4-(3′-Acetyl-biphenyl-4-ylmethoxy)-2-hydroxy-benzoic acid], the melting point was 215 to 220 °C (dec.).
The same measure for `O=C(O)c1cccc(-c2ccc(COc3ccc(C(=O)O)c(O)c3)cc2)c1` [Compound 3-7, 4′-(4-Carboxy-3-hydroxy-phenoxymethyl)-biphenyl-3-carboxylic acid]: 249 to 255 °C (dec.); for `O=C(O)c1ccc(OCc2ccc(-c3cccc(O)c3)cc2)cc1O` [Compound 3-8, 2-Hydroxy-4-(3′-hydroxy-biphenyl-4-ylmethoxy)-benzoic acid]: 209 to 212 °C (dec.); for `COc1cccc(-c2ccc(COc3ccc(C(=O)O)c(O)c3)cc2)c1` [Compound 3-9, 2-Hydroxy-4-(3′methoxy-biphenyl-4-ylmethoxy)-benzoic acid]: 197 to 199 °C (dec.).
The same measure for `O=C(O)c1ccc(OCc2ccc(-c3cccc([N+](=O)[O-])c3)cc2)cc1O` [Compound 3-10, 2-Hydroxy-4-(3′-nitro-biphenyl-4-ylmethoxy)-benzoic acid]: 211 to 214 °C (dec.); for `CC(=O)Nc1cccc(-c2ccc(COc3ccc(C(=O)O)c(O)c3)cc2)c1` [Compound 3-12, 4-(3′-Acetylamino-biphenyl-4-ylmethoxy)-2-hydroxy-benzoic acid]: 231 to 233 °C (dec.).
The same measure for `CC(=O)c1ccc(-c2ccc(COc3ccc(C(=O)O)c(O)c3)cc2)s1` [Compound 3-13, 4-[4-(5-Acetyl-thiophen-2-yl)-benzyloxy]-2-hydroxy-benzoic acid]: 244 to 248 °C (dec.); for `O=C(O)c1ccc(OCc2ccc(-c3ccc4c(c3)OCO4)cc2)cc1O` [Compound 3-14, 4-[3′,4′-(Methylenedioxy)-biphenyl-4-ylmethoxy]-2-hydroxy-benzoic acid]: 222 to 226 °C (dec.).
`COc1ccc(-c2ccc(COc3ccc(C(=O)O)c(O)c3)cc2)cc1OC` [Compound 3-15, 2-Hydroxy-4-(3′,4′-dimethoxy-biphenyl-4-ylmethoxy)-benzoic acid]: the melting point is 200 to 204 °C (dec.).
In the case of `O=C(O)c1ccc(OCc2ccc(-c3ccc(CO)cc3)cc2)cc1O` [Compound 3-16, 2-Hydroxy-4-(4′-hydroxymethyl-biphenyl-4-ylmethoxy)-benzoic acid], the melting point is 222 to 226 °C (dec.).
The same measure for `O=C(O)c1ccc(OCc2cccc(-c3ccccc3)c2)cc1O` [Compound 3-18, 4-(Biphenyl-3-ylmethoxy)-2-hydroxy-benzoic acid]: 184 °C (dec.).
The same measure for `CC(=O)c1cccc(-c2cccc(COc3ccc(C(=O)O)c(O)c3)c2)c1` [Compound 3-20, 4-(3′-Acetyl-biphenyl-3-ylmethoxy)-2-hydroxy-benzoic acid]: 173 to 180 °C (dec.); for `O=C(O)c1cccc(-c2cccc(COc3ccc(C(=O)O)c(O)c3)c2)c1` [Compound 3-21, 3′-(4-Carboxy-3-hydroxy-phenoxymethyl)-biphenyl-3-carboxylic acid]: 211 to 227 °C (dec.).
The same measure for `COc1cccc(-c2cccc(COc3ccc(C(=O)O)c(O)c3)c2)c1` [Compound 3-22, 2-Hydroxy-4-(3′-methoxy-biphenyl-3-ylmethoxy)-benzoic acid]: 103 to 115 °C (dec.).
With `O=C(O)c1ccc(OCc2cccc(-c3cccc([N+](=O)[O-])c3)c2)cc1O` [Compound 3-23, 2-Hydroxy-4-(3′-nitro-biphenyl-3-ylmethoxy)-benzoic acid], the melting point was 188 to 193 °C (dec.).
The same measure for `Nc1cccc(-c2cccc(COc3ccc(C(=O)O)c(O)c3)c2)c1` [Compound 3-24, 4-(3′-Amino-biphenyl-3-ylmethoxy)-2-hydroxy-benzoic acid]: 205 to 208 °C (dec.); for `COc1cc(-c2cccc(COc3ccc(C(=O)O)c(O)c3)c2)ccc1O` [Compound 3-26, 2-Hydroxy-4-(4′-hydroxy-3′-methoxy-biphenyl-3-ylmethoxy)-benzoic acid]: 153 to 157 °C (dec.); for `O=C(O)c1ccc(OCc2cccc(-c3cccnc3)c2)cc1O` [Compound 3-27, 2-Hydroxy-4-(3-pyridin-3-yl-benzyloxy)-benzoic acid]: 189 to 195 °C (dec.).
The same measure for `CC(=O)c1ccc(-c2cccc(COc3ccc(C(=O)O)c(O)c3)c2)s1` [Compound 3-29, 4-[3-(5-Acetyl-thiophen-2-yl)-benzyloxy]-2-hydroxy-benzoic acid]: 210 to 215 °C (dec.); for `O=C(O)c1ccc(OCc2cccc(-c3ccc(Cl)c(Cl)c3)c2)cc1O` [Compound 3-30, 4-(3′,4′-Dichloro-biphenyl-3-ylmethoxy)-2-hydroxy-benzoic acid]: 211 to 215 °C (dec.).

For the origin of these results see patent publication US7741352B2, “KCNQ channel modulating compounds and their pharmaceutical use” (Neurosearch A/S, priority 2003, dated 2010).
